Two compounds from US10858305B2, “Perillyl alcohol-3-bromopyruvate conjugate and methods of treating cancer” (NeOnc Technologies, Inc., priority 2016, dated 2020) can be followed below.

Data set [1] relates to MDA-MB-231 breast cancer cells. Put plainly: LDH release assay in MDA-MB-231 / breast cancer cell lines. The data set is classed as cell-based, human. On the procedure:
(§1) (A) MTT assay was performed after 24 hours. […] (B) LDH assay was performed after […]. LDH release by untreated cells was set to 1. Relative fold increase is shown (n=3).
(§2) (A) MTT assay was performed after 24 hours. Viability of untreated cells was set at 100% (data points are averages of 2 experiments). (B) LDH assay was performed after 24 hours. LDH release by untreated cells was set to 1. Relative fold increase is shown (averages from 2 experiments). (C) Representative photos show typical colony formation after initial 48 hours of drug treatment. In all cases of combination treatment with 3-BP mixed with […] (3-BP+POH), the indicated concentrations refer to each individual drugs, i.e., 100 μM 3-BP+POH means that 100 μM 3-BP was combined with 100 μM POH.
The capacity for rapid cell killing by NEO218 relative to 3-BP, POH and 3-BP+POH was evaluated via LDH assay, where LDH release is used as a proxy for cell death.
In FIG. 4, Panels (a) and (b), show the results of treating breast cancer cell lines with increasing concentrations of NEO218, 3-BP, or 3-BP mixed with POH. […] In all cases a-d, the release of LDH (as a marker of cell death) was measured after 24 hours.
Depending on the cell line, 2000 to 4000 cells per well were seeded in a volume of 50 μL into a 96-well plate. The next day, drugs ere added in an additional 50 μL of medium. At different time points (usually after 24 hours of incubation), 50 μL medium was removed and processed with the LDH Cytotoxicity Assay Kit (Thermo Fisher Scientific, Waltham, Mass.) according to the manufacturer's instructions. This kit measures extracellular LDH in culture medium using an enzymatic reaction that results in a red formazan product, which can be measured spectrophotometrically. The absorbance was measured at 490 and 680 nm. All LDH levels were normalized to untreated controls and presented as fold change of the controls.

The test system of data set [2] is MDA-MB-231 cells. Briefly: Colony formation assay in MDA-MB-231 cells. The data set is classed as cell-based. The note with it: Homo sapiens; MDA-MB-231, 48 hours drug then 10-14 days; read-out: effective concentration (half-maximal), CFA. The procedure: as §1, §2
Depending on the cell line (and plating efficiency), 250-800 cells were seeded into each well of a 6-well plate and treated as described in detail previously. After 12-16 days, colonies (defined as groups of >50 cells) were visualized by staining for 4 hours with 1% methylene blue (in methanol), and then were-counted. Experiments were repeated at least once, but usually more often under different conditions.

Data set [3] concerns HCT116 cells transfected with MCT-1 siRNA or scrambled control. Briefly: MTT assay in HCT116 cells after siRNA knockdown of MCT-1. It counts as cell-based. The conditions noted are these: Homo sapiens. The procedure: HCT116 cells were transfected with siRNA targeted at MCT-1 (circles), or with a scrambled control (diamonds). (A) Cellular sensitivity to 3-BP and NEO218 was determined by MTT assay. Dotted lines and arrow show the shift in IC50. Note pronounced shift to the right in 3-BP-treated cells (left, panel), compared to a minor shift to the left in NEO218-treated cells (right panel). (B) Knockdown of MCT-1 protein levels was confirmed by Western blot analysis with actin as the loading control. (C) MCT-1 knockdown was also confirmed at the individual cell level by immunocytochemistry. The two photos were similarly overexposed in order to emphasize the pronounced difference in MCT-1 levels.
Methylthiazoletetrazolium (MTT) assays were performed as described earlier.
All siRNAs were purchased from Qiagen, Valencia, Calif. To knock down MCT1 expression, we used siRNA Hs_SLC16A1_6 (target sequence: 5′-[…]-3′). As a non-silencing control, we used AllStars Negative Control siRNA, which lacks homology to any known mammalian gene. One hundred thousand cells per well of a 6-well plate were transfected with 50 nM siRNA using jetPRIME transfection reagent and buffer (Polyplus Transfection, New York, N.Y.). Medium was changed after 24 hours and cells were subjected to experiments 72 hours after transfection. 2.10. Immunoblots

Data set [4] deals with MDA-MB-231, T47D, T98G, U251, HCT116 and A2780 cancer cells. Briefly: MTT assay, cell viability after 48 hours in six cancer cell lines. The data set is classed as cell-based, human. The text has this:
The tumor cell-killing potency of NEO218 was characterized by in vitro, short-term MTT assays (measuring viability of cells via determination of metabolic activity), LDH assays (measuring the release of lactate dehydrogenase as an indicator of leaky cell membranes, which are indicative of dying cells), and colony-formation assays (CFA, which determine long-term survival of drug-treated cells and their ability to spawn a colony of descendants). Several established cell lines derived from cancers of the breast were used as target cells (including MDA-MB-231; MDA-MB-468; T47D; MCF7; MCF7/Dox; BTB12), brain (T98G; U251), ovary (A2780), and colon (HCT116). In all cases, cells in culture were exposed to increasing concentrations of agents for 24 or 48 hours.
Cell lines from different cancer types were treated with increasing concentrations of 3-bromopyruvate (3-BP) or NEO218. After 48 hours, cell viability was measured by MTT assay. MDA-MB-231 and T47D are breast cancer cells; T98G and U251 are brain cancer (glioblastoma) cells; HCT116 are colon cancer cells; A2780 are ovarian cancer cells.
In general terms: Formazan colour is commonly taken as a measure of viable cells.

Data set [5] relates to tumor cell lines. Put plainly: cells. The data set is classed as cell-based, human. On the procedure: Different tumor cell lines were treated with 3-BP mixed with POH, and the effects were compared to the effects of NEO218, as well as to 3-BP alone. The cells were treated for 24 hours, and then the MTT assay was conducted to measure cell viability.
The test system of data set [6] is MDA-MB-231 triple-negative breast cancer cells. Briefly: Subcutaneous MDA-MB-231 xenograft in nude mice. It counts as in vivo. The conditions noted are these: 5 mg/kg on days 1, 5, 9. On the procedure: The anticancer activity of NEO218 in vivo was investigated next. MDA-MB-231 triple-negative breast cancer cells were subcutaneously implanted into 12 nude mice. After two weeks, the animals were separated into 2 groups for treatment with either vehicle (no drug) or NEO218 (5 mg/kg). Then, NEO218 (or vehicle) was administered on days 1, 5, and 9 (3 doses total, 4 days apart). Tumor growth was measured with calipers every 3 days from day 1 (=start of treatment) until day 13 (end of experiment).
The panels show tumor growth over time for each individual animal.

Where two headings read alike, the source gives them in different places. Some results are limits rather than exact numbers.

On to `O=C(O)C(=O)CBr` [3-BP, 3-bromopyruvate], for which, in data set [1] (Homo sapiens, MDA-MB-231, 16 hours, read-out: effective concentration (half-maximal), LDH assay), the EC50 was approximately 350 µM. Moreover, the IC50 is approximately 130 µM in data set [2]; 67 µM in data set [3] (HCT-116, read-out: IC50 (MTT), HCT116, MCT-1 siRNA knockdown); 20 µM in data set [3] (HCT-116, read-out: IC50 (MTT), HCT116, scrambled control siRNA).
Take `C=C(C)[C@@H]1CC=C(COC(=O)C(=O)CBr)CC1` [NEO218, 3-bromo-2-oxo-propionic acid 4-isopropenyl-cyclohex-1-enylmethyl ester]: the IC50 in data set [4] (Homo sapiens, all six cell lines) was 15 to 40 µM; in data set [3] (HCT-116, HCT116, MCT-1 siRNA knockdown, read-out: IC50 (MTT)) it was 15 µM; in data set [3] (HCT-116, HCT116, scrambled control siRNA, read-out: IC50 (MTT)), 19 µM. In data set [4] (MTT), the “cancer cell killing effects compared with 3-BP” value is recorded as “more potent cancer cell killing effects than 3-BP in all cell lines”. In addition, the “cytotoxic potency compared with the other treatments” value in data set [5] is listed as “much more potent than any other treatment”. For the same compound, the “earliest detection of cytotoxic effects (LDH release) after onset of drug treatment” value in data set [1] (MDA-MB-231, time course) came out at 1 h. Moreover, the “time at which half-maximal extent of cell death is reached” value in data set [1] (MDA-MB-231, time course of LDH release) was less than 8 h. Further, in data set [6], the “organ toxicity or other side effects” value is “organ toxicity or other side effects were not detected”. Further, in data set [6], the tolerability in mice entry is on record as “tolerated this compound quite well”. The “tumor growth compared with vehicle group” value in data set [6] is recorded as “slower tumor growth”. Moreover, the “tumor volume at the end of the experiment” value in data set [6] (day 13, all animals) is “below 200 cubic millimeters”.
